These results are taken from patent EP0565593B1, “REDUCING PESTICIDAL INTERACTIONS IN CROPS” (priority 1990, dated 1992).

The test system of test [1] is Corn. The settings on record: […].
Test [2] concerns Velvetleaf (VELE). Kind of test: whole plant or invertebrate. Format: in vivo, Abutilon theophrasti.
Test [3] has as its system Shattercane (SHCA). The class given is in vivo. The settings on record: […].
Test [4] concerns Velvetleaf (VELE). Format: in vivo, Abutilon theophrasti. The settings on record: […].
Test [5] deals with Giant foxtail (GIFT). The experiment in a line: whole plant or invertebrate. Format: in vivo.
The subject of test [6] is Corn.
Where [7] appears, read: observed 7 days after POE (Table 35).
[8] abbreviates: observed 7 days after POE (Table 36).
Where [9] appears, read: observed 8 days later (Table 32).
Where [10] appears, read: observed 8 days later (Table 33).
The mark [11] stands for this setting: […], PPI, 14 days after PPI (Table 34).
The mark [12] stands for this setting: observed 9 days later (Table 29).
Where [13] appears, read: observed 9 days later (Table 30).
Where [14] appears, read: […], PPI, 13 days after PPI (Table 31).

Where two headings read alike, the source gives them in different places.

In the case of `CCCCCCCCOC(=O)c1sc(Cl)nc1C(F)(F)F` [compound 63], the entries for the “% Inhibition Corn” value in test [1] (setting [7]), in test [1] (setting [8]) and in test [6] (in vivo) were 30%, 55% and 65%, respectively. The “% Inhibition VELE” value in test [2] (in vivo) was 90%; in test [4] (setting [7]), 80%; in test [4] (setting [8]) it was 65%. In addition, the “% Inhibition SHCA” value was determined as 70% in test [3] (setting [7]) and 40% in test [3] (setting [8]). The “% Inhibition GIFT” value in test [5] (in vivo) is reported as 70%.

Turning to `O=C(O)c1sc(Cl)nc1C(F)(F)F` [compound 68], the “% Inhibition Corn” value was 25% in test [1] (setting [7]), 65% in test [1] (setting [8]) and 45% in test [6] (in vivo). Also, the figures for the “% Inhibition VELE” value in test [2] (in vivo), in test [4] (setting [7]) and in test [4] (setting [8]) were 80%, 85% and 60%, respectively. For the same compound, the “% Inhibition SHCA” value in test [3] (setting [7]) worked out at 70%; in test [3] (setting [8]), 45%. Besides, the “% Inhibition GIFT” value in test [5] (in vivo) was determined as 65%.

In the case of `O=C(COC(c1ccccc1)c1ccccc1)OCc1ccoc1` [compound 55], the entries for the “% Inhibition Corn” value in test [1] (setting [9]), in test [1] (setting [10]) and in test [6] (setting [11]) were 25%, 50% and 45%, respectively. The figures for the “% Inhibition VELE” value in test [2] (setting [11]), in test [4] (setting [9]) and in test [4] (setting [10]) were 90%, 85% and 70%, respectively. Further, the “% Inhibition SHCA” value in test [3] (setting [9]) turned out to be 75%; in test [3] (setting [10]), 25%. In test [5] (setting [11]), the “% Inhibition GIFT” value is given as 65%.

In the case of `O=C(COC(c1ccccc1)c1ccccc1)Oc1ccccc1` [compound 50], the “% Inhibition Corn” value in test [1] (setting [9]) is 20%; in test [1] (setting [10]), 45%; in test [6] (setting [11]) it was 60%. The “% Inhibition VELE” value turned out to be 95% in test [2] (setting [11]), 80% in test [4] (setting [9]) and 70% in test [4] (setting [10]). Also, the “% Inhibition SHCA” value in test [3] (setting [9]) turned out to be 75%; in test [3] (setting [10]), 25%. Further, the “% Inhibition GIFT” value in test [5] (setting [11]) is 70%.

As to `CC(Cl)C(=O)Nc1nc(C(F)(F)F)c(I)s1` (centres unmarked) [compound 72], the “% Inhibition Corn” value is 70% in test [1] (setting [7]), 60% in test [1] (setting [8]) and 75% in test [6] (in vivo). For the same compound, the “% Inhibition VELE” value in test [2] (in vivo) is on record as 90%; in test [4] (setting [7]), 85%; in test [4] (setting [8]) it was 70%. Also, the “% Inhibition SHCA” value in test [3] (setting [7]) is 75%; in test [3] (setting [8]) it was 30%. For the same compound, the “% Inhibition GIFT” value in test [5] (in vivo) is on record as 75%.

In the case of `O=C(C(Cl)Cl)N1CCc2ccccc2C1c1ccccc1` (centres unmarked) [compound 40], the “% Inhibition Corn” value in test [1] (setting [12]) was found to be 45%; in test [1] (setting [13]), 35%; in test [6] (setting [14]) it was 60%. Also, the “% Inhibition VELE” value in test [2] (setting [14]) is reported as 85%; in test [4] (setting [12]), 90%; in test [4] (setting [13]), 70%. In addition, the “% Inhibition SHCA” value in test [3] (setting [12]) is on record as 85%; in test [3] (setting [13]), 40%. Also, in test [5] (setting [14]), the “% Inhibition GIFT” value is on record as 70%.

With `O=C(COC(c1ccccc1)c1ccccc1)Oc1cccc([N+](=O)[O-])c1` [compound 57], the “% Inhibition Corn” value is listed as 15% in test [1] (setting [9]), 65% in test [1] (setting [10]) and 65% in test [6] (setting [11]). For the same compound, the “% Inhibition VELE” value in test [2] (setting [11]) came to 80%; in test [4] (setting [9]), 85%. Besides, the “% Inhibition SHCA” value in test [3] (setting [9]) amounted to 80%; in test [3] (setting [10]), 35%. The “% Inhibition GIFT” value in test [5] (setting [11]) stood at 70%.

Consider `CCOC(=O)c1sc(I)nc1C(F)(F)F` [compound 67], for which the “% Inhibition Corn” value in test [1] (setting [7]) came to 35%; in test [1] (setting [8]), 45%; in test [6] (in vivo), 55%. The “% Inhibition VELE” value in test [2] (in vivo) is 95%; in test [4] (setting [7]), 85%; in test [4] (setting [8]), 70%. Further, the entries for the “% Inhibition SHCA” value in test [3] (setting [7]) and in test [3] (setting [8]) were 65% and 40%, respectively. Besides, in test [5] (in vivo), the “% Inhibition GIFT” value is reported as 75%.

Regarding `CC(C)CC1c2ccccc2CCN1C(=O)C(Cl)Cl` (centres unmarked) [compound 41], the “% Inhibition Corn” value in test [1] (setting [12]) stood at 25%; in test [1] (setting [13]) it was 45%; in test [6] (setting [14]), 60%. The “% Inhibition VELE” value worked out at 80% in test [2] (setting [14]), 90% in test [4] (setting [12]) and 70% in test [4] (setting [13]). Further, the “% Inhibition SHCA” value in test [3] (setting [12]) is 80%; in test [3] (setting [13]), 30%. The “% Inhibition GIFT” value in test [5] (setting [14]) is on record as 90%.

On to `Cc1csc(=NC(C)c2ccccc2)s1` (centres unmarked) [compound 69], for which the figures for the “% Inhibition Corn” value in test [1] (setting [7]), in test [1] (setting [8]) and in test [6] (in vivo) were 30%, 50% and 35%, respectively. The entries for the “% Inhibition VELE” value in test [2] (in vivo), in test [4] (setting [7]) and in test [4] (setting [8]) were 90%, 80% and 70%, respectively. Further, the entries for the “% Inhibition SHCA” value in test [3] (setting [7]) and in test [3] (setting [8]) were 75% and 40%, respectively. Besides, the “% Inhibition GIFT” value in test [5] (in vivo) is listed as 70%.

Regarding `CCCOC(=O)COC(c1ccccc1)c1ccccc1` [compound 47], the figures for the “% Inhibition Corn” value in test [1] (setting [9]), in test [1] (setting [10]) and in test [6] (setting [11]) were 25%, 50% and 60%, respectively. Further, the “% Inhibition VELE” value in test [2] (setting [11]) is reported as 85%; in test [4] (setting [9]), 85%; in test [4] (setting [10]), 75%. In addition, the “% Inhibition SHCA” value in test [3] (setting [9]) is listed as 75%; in test [3] (setting [10]) it was 30%. The “% Inhibition GIFT” value in test [5] (setting [11]) was 65%.

Take `CCOC(=O)COC(c1c(C)cccc1C)c1c(C)cccc1C` [compound 58]: the “% Inhibition Corn” value was 55% in test [1] (setting [9]), 45% in test [1] (setting [10]) and 30% in test [6] (setting [11]). Besides, the results for the “% Inhibition VELE” value in test [2] (setting [11]), in test [4] (setting [9]) and in test [4] (setting [10]) were 90%, 85% and 70%, respectively. The “% Inhibition SHCA” value is 70% in test [3] (setting [9]) and 30% in test [3] (setting [10]). The “% Inhibition GIFT” value in test [5] (setting [11]) was 60%.

As to `O=C(C(Cl)Cl)N1CCN(C(=O)C(Cl)Cl)CC1` [compound 3], the “% Inhibition Corn” value in test [1] (setting [12]) worked out at 35%; in test [1] (setting [13]), 60%; in test [6] (setting [14]), 55%. Also, the “% Inhibition VELE” value in test [2] (setting [14]) was 95%; in test [4] (setting [12]), 95%; in test [4] (setting [13]) it was 70%. For the same compound, the “% Inhibition SHCA” value was found to be 70% in test [3] (setting [12]) and 40% in test [3] (setting [13]). Moreover, the “% Inhibition GIFT” value in test [5] (setting [14]) is given as 75%.

As to `CC1(C)OC(Cc2ccccc2)CN1C(=O)C(Cl)Cl` (centres unmarked) [compound 34], the “% Inhibition Corn” value in test [1] (setting [12]) was 15%; in test [1] (setting [13]) it was 35%; in test [6] (setting [14]) it was 35%. For the same compound, the entries for the “% Inhibition VELE” value in test [2] (setting [14]), in test [4] (setting [12]) and in test [4] (setting [13]) were 80%, 85% and 70%, respectively. Further, the “% Inhibition SHCA” value turned out to be 70% in test [3] (setting [12]) and 25% in test [3] (setting [13]). Also, the “% Inhibition GIFT” value in test [5] (setting [14]) was determined as 75%.

For the compound `O=C(O)c1sc(Cl)nc1C(F)(F)F` [compound 65], the results for the “% Inhibition Corn” value in test [1] (setting [7]), in test [1] (setting [8]) and in test [6] (in vivo) were 25%, 50% and 45%, respectively. Further, the “% Inhibition VELE” value amounted to 90% in test [2] (in vivo), 80% in test [4] (setting [7]) and 65% in test [4] (setting [8]). Moreover, the “% Inhibition SHCA” value in test [3] (setting [7]) was determined as 70%; in test [3] (setting [8]), 30%. The “% Inhibition GIFT” value in test [5] (in vivo) was determined as 70%.

As to `O=C(COC(c1ccccc1)c1ccccc1)OCC(F)(F)F` [compound 48], the “% Inhibition Corn” value turned out to be 20% in test [1] (setting [9]), 45% in test [1] (setting [10]) and 30% in test [6] (setting [11]). Besides, the “% Inhibition VELE” value is given as 95% in test [2] (setting [11]), 90% in test [4] (setting [9]) and 70% in test [4] (setting [10]). The “% Inhibition SHCA” value was determined as 80% in test [3] (setting [9]) and 25% in test [3] (setting [10]). Further, the “% Inhibition GIFT” value in test [5] (setting [11]) is on record as 60%.

As to `CCOC(=O)c1sc(Cl)nc1C(F)(F)F` [compound 60], the “% Inhibition Corn” value in test [1] (setting [7]) was 40%; in test [1] (setting [8]) it was 60%; in test [6] (in vivo), 60%. Further, the “% Inhibition VELE” value in test [2] (in vivo) is 90%; in test [4] (setting [7]), 80%; in test [4] (setting [8]), 65%. The entries for the “% Inhibition SHCA” value in test [3] (setting [7]) and in test [3] (setting [8]) were 60% and 35%, respectively. The “% Inhibition GIFT” value in test [5] (in vivo) was determined as 75%.

With `CCOC(=O)c1sc(Br)nc1C(F)(F)F` [compound 66], the results for the “% Inhibition Corn” value in test [1] (setting [7]), in test [1] (setting [8]) and in test [6] (in vivo) were 30%, 50% and 50%, respectively. For the same compound, the results for the “% Inhibition VELE” value in test [2] (in vivo), in test [4] (setting [7]) and in test [4] (setting [8]) were 90%, 80% and 60%, respectively. Further, the “% Inhibition SHCA” value in test [3] (setting [7]) is on record as 60%; in test [3] (setting [8]), 25%. Besides, the “% Inhibition GIFT” value in test [5] (in vivo) amounted to 70%.

For the compound `CCC1c2ccccc2CCN1C(=O)C(Cl)Cl` (centres unmarked) [compound 39], the figures for the “% Inhibition Corn” value in test [1] (setting [12]), in test [1] (setting [13]) and in test [6] (setting [14]) were 25%, 40% and 50%, respectively. Moreover, the “% Inhibition VELE” value in test [2] (setting [14]) is 95%; in test [4] (setting [12]) it was 90%; in test [4] (setting [13]) it was 80%. Moreover, the “% Inhibition SHCA” value in test [3] (setting [12]) is listed as 75%; in test [3] (setting [13]), 40%. The “% Inhibition GIFT” value in test [5] (setting [14]) amounted to 85%.
